Measurements: PubChem BioAssay AID1918995 (Molecular Pharmacology Branch, DTP, NCI, 2023)
“And” between values parts separate entries of the source, which are not always exact repeats. Identical values can stand only once.

Tested on: 324938-238-R-J1-PDC complex spheroid growth, % test/control
Test: Anticancer human tumor 324938-238-R-J1-PDC patient-derived bladder carcinoma cell line growth inhibition [AhR]
Conditions: for viability, T/C: stronger effect = lower value
Source text: Multicellular complex tumor spheroid response to aryl hydrocarbon receptor antagonists in combination with a variety of drugs and investigational agents in selected tumor cell lines
The current study was undertaken to assess response to aryl hydrocarbon receptor antagonists in combination with standard-of-care drugs and investigational agents in solid tumor complex spheroid models. Complex spheroids include a stromal component modeled by human endothelial cells (HUVEC) and fibroblasts modeled by human mesenchymal stem cells (MSCs). The concentration ranges selected for each drug and investigational agent were based upon clinically achievable concentrations if the clinical Cmax of the agent was known.
Compounds. The drugs and investigational agents: BAY 2416964 (NSC825713), GNF351 (NSC835774), CH-223191 (NSC835775), CPI-455 (NSC825282), aza-TdCyd (NSC777586), decitabine (NSC127716), belinostat (NSC758774), entinostat (NSC756642), pevonedistat (NSC761192), tazemetostat (NSC777109), talazoparib (NSC765396), olaparib (NSC753686), selinexor (NSC780203), nedisertib (M3814, NSC802822), bortezomib (NSC756655), venetoclax (NSC766270), doxorubicin (NSC123127), elimusertib (BAY189344, NSC800525), ceralasertib (AZD6738, NSC777638), TAK-243 (NSC785004), alisertib (NSC759677), etoposide (NSC141540), topotecan (NSC609699), eribulin (NSC707389), gemcitabine (NSC613327), carboplatin (NSC241240), cisplatin (NSC119875), and SN-38 (NSC673596) were obtained from the National Cancer Institute (NCI) Developmental Therapeutics Program Chemical Repository (32). The FDA-approved anticancer drug set is available from the Developmental Therapeutics Program at https://dtp.cancer.gov/organization/dscb/obtaining/available plates.htm. […] The stock solutions were prepared in dimethyl sulfoxide (DMSO, Sigma-Aldrich, St. Louis, MO, cat. D2650), except for the platinum compounds which were prepared in saline (Quality Biological, Gaithersburg, MD, cat. 114-055-101), at 800-fold the tested concentration and stored at -70 degrees C prior to their use. All drugs and investigational agents were tested over a range starting from a high concentration at or near the clinical Cmax and decreasing in half-log increments. If the clinical Cmax for an agent had not been determined, the highest concentration tested was 10 microM (Table 1).
Cell Culture. All cells were maintained in an incubator at 37 degrees C and 5% CO2 with 95% humidity. The PDC lines were cultured according to standard operating procedures established by the NCI PDMR (https://pdmr.cancer.gov). Briefly, all PDCs were thawed and cultured in Matrigel-coated flasks prepared with a working solution of 1X Ham's F-12 nutrient mix, without supplementation (Invitrogen, Waltham, MA, cat. 11765054), 100 U/mL penicillin-streptomycin (Invitrogen, cat. 15140122), and 2.5% Matrigel (Corning Inc., Corning, NY, cat. 354248) for the first three passages. All PDCs were cultured in complete DMEM/F-12 media containing advanced DMEM/F-12 (Invitrogen, cat. 12634028), 4.9% defined fetal bovine serum, heat inactivated (HyClone Laboratories Inc., Logan, UT, cat. SH30070.03HI), 389 ng/mL hydrocortisone (Sigma-Aldrich, cat. H4001), 9.7 ng/mL human EGF recombinant protein (Invitrogen, cat. PHG0313), 23.4 microg/mL adenine (Sigma-Aldrich, cat. A2786), 97.3 U/mL penicillin-streptomycin (Invitrogen, cat. 15140122), 1.9 mM L-glutamine (Invitrogen, cat. 25030081), and 9.7 microM Y-27632 dihydrochloride (Tocris Bioscience, Bristol, United Kingdom, cat. 1254). The PDCs were cultured in complete DMEM/F12 media without 10 microM Y-27632 dihydrochloride for at least two passages prior to the screen. The established cell lines NCI-H1341 and […] were cultured in DMEM/F-12, HEPES (Invitrogen, cat. 11330032), 5% defined fetal bovine serum (HyClone Laboratories Inc., cat. SH30070.03), ITS premix universal culture supplement [insulin (5 microg/mL), transferrin (5 microg/mL), and selenious acid (5 ng/mL)] […]
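Also: spheroids exposed to agents for seven days before viability read.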

| SMILES | viability, T/C (compound 0.0316 µM) | viability, T/C (compound 0.1 µM) | viability, T/C (compound 0.316 µM) | viability, T/C (compound 1 µM) | viability, T/C (compound 3.16 µM) | viability, T/C (compound 10 µM) | IC50 (curve of compound) | further results |
| --- | --- | --- | --- | --- | --- | --- | --- | --- |
| COc1ccc([C@@H](O)c2cc(-c3ncnc4cc(N5CCOCC5)ccc34)c(F)cc2Cl)nn1 | 109% (2×) and 99.4% | 115% and 112% and 109% | 59.1% and 92.5% and 94% | 82.9% and 89.8% and 84% | 59.8% and 80.3% and 73.2% | 33.9% and 66% and 60.1% | 4380 nM and > 10000 nM |  |
| COc1cccc2c1C(=O)c1c(O)c3c(c(O)c1C2=O)CC(O)(C(=O)CO)CC3OC1CC(N)C(O)C(C)O1 (stereo not given) | 69.2% and 39.5% and 37.4% | 86% and 31.1% and 26.5% | 53.9% and 16.3% and 19.6% | 2.48% and 4.61% and 4.55% | 1.18% and 0.26% and 0.23% | 0.6% and 0.23% and 0.35% |  |  |
| Cc1ccccc1N=Nc1ccc(NC(=O)c2ccnn2C)c(C)c1 |  |  |  |  |  | 79.2% [middle of 20 runs] |  | IC50 (compound alone, run of 07/26/2022): > 10000 nM |
| Cc1cncc(-c2nc(NCCc3c[nH]c4ccccc34)c3ncn(C(C)C)c3n2)c1 |  |  |  |  |  |  |  | IC50 (compound alone, run of 07/18/2022): 5.31 µM [middle of 23 runs] |
| Cn1ncnc1C1c2n[nH]c(=O)c3cc(F)cc(c23)NC1c1ccc(F)cc1 (stereo not given) | 98% and 79.1% and 61.1% | 89.5% and 65.1% and 46.1% |  |  |  |  | > 100 nM and 78.1 nM | viability, T/C (compound 0.000316 µM): 107% and 101% and 111%; viability, T/C (compound 0.001 µM): 100% and 105% and 98%; viability, T/C (compound 0.00316 µM): 92.3% and 101% and 90.6%; viability, T/C (compound 0.01 µM): 97.1% and 74.3% and 87.5% |
| NS(=O)(=O)OCC1CC(n2ccc3c(NC4CCc5ccccc54)ncnc32)CC1O (stereo not given) | 120% and 104% and 97.8% | 79.3% and 98% and 80.5% | 97.1% and 99.1% and 65.3% | 64.7% and 67.5% and 40.5% | 30.8% and 30.9% and 26.9% | 25.3% and 31.1% and 29.9% | 1860 nM and 1750 nM and 616 nM |  |
| Nc1ccccc1NC(=O)c1ccc(CNC(=O)OCc2cccnc2)cc1 | 90% and 112% and 121% | 80.4% and 111% and 110% | 57.2% and 107% and 97.9% | 61.7% and 69% and 70.3% | 37.1% and 43.2% and 58.1% |  | 1310 nM and 2200 nM and 3500 nM |  |
| Nc1ccn(C2OC(CO)C(O)C2(F)F)c(=O)n1 (stereo not given) | 68.2% and 32.2% and 53.2% | 98.7% and 26% and 26.2% | 79.8% and 18.3% and 16.4% | 79.5% and 19.9% and 15.4% | 87.5% and 17.6% and 11.5% | 87.3% and 11.4% and 10.1% |  |  |
| Nc1ncn(C2CC(O)C(CO)O2)c(=O)n1 (stereo not given) | 82.3% and 98.6% and 85.2% | 83.7% and 98.3% and 96.2% | 128% and 80.2% and 81.7% | 92.8% and 72% and 68.3% |  |  | > 1000 nM | viability, T/C (compound 0.00316 µM): 69.8% and 99.6% and 102%; viability, T/C (compound 0.01 µM): 96.2% and 113% and 94.2% |
| Nc1ncn(C2CC(O)C(CO)S2)c(=O)n1 (stereo not given) |  |  |  |  |  |  | > 300 nM and 215 nM | viability, T/C (compound 0.000949 µM): 106% and 103% and 93.4%; viability, T/C (compound 0.003 µM): 86.6% and 105% and 95.5%; viability, T/C (compound 0.00949 µM): 86.8% and 106% and 94.1%; viability, T/C (compound 0.03 µM): 116% and 92.5% and 88.8%; viability, T/C (compound 0.0949 µM): 96.4% and 71.2% and 66.3%; viability, T/C (compound 0.3 µM): 138% and 60.1% and 43.4% |
| O=C(C=Cc1cccc(S(=O)(=O)Nc2ccccc2)c1)NO | 100% and 110% and 114% | 92% and 98.7% and 110% | 109% and 89.2% and 81.5% | 85.5% and 66.9% and 72.5% | 46% and 49.9% and 51.9% |  | 2790 nM and 2980 nM and 2550 nM |  |
| O=C(C=Cn1cnc(-c2cc(C(F)(F)F)cc(C(F)(F)F)c2)n1)NNc1cnccn1 |  |  |  |  |  |  | 681 nM and 184 nM and 92.1 nM | viability, T/C (compound 0.00949 µM): 129% and 95.9% and 85.8%; viability, T/C (compound 0.03 µM): 100% and 95.8% and 75.1%; viability, T/C (compound 0.0949 µM): 71.5% and 69.7% and 47.7%; viability, T/C (compound 0.3 µM): 58.5% and 34.4% and 27%; viability, T/C (compound 0.949 µM): 45.4% and 16.9% and 15.9% |
| O=C(c1cc(Cc2n[nH]c(=O)c3ccccc23)ccc1F)N1CCN(C(=O)C2CC2)CC1 | 115% and 100% and 97.8% | 73.1% and 102% and 96.9% | 66% and 103% and 82% | 86.6% and 110% and 88.1% | 69.2% and 90.5% and 77.8% | 79% and 74.1% and 47.3% | > 10000 nM and 9370 nM |  |
